Results on three compounds are retold here after patent US20240041708A1, “DEHYDRATED SOAP AND CLEANER TABLET COMPOSITION” (HAPPY GO LUCKY LLC, priority 2022, published 2024).

Entries after “also recorded” stand apart in the source; their conditions may differ.

Series [1] has as its system environmental microbes. Put plainly: Rehydrated tablet stability testing (daily scent, clarity, particulates, pressure; pass/fail). Conditions: as preservative in Comparative Examples 3 and 4. The text has this:
The key goals for the present invention, given that it is intended to be used for bottles that will be refilled many times to reduce plastic waste, are for the rehydrated formula to: • (a) be stable once rehydrated, meaning that the solution would no discernible microbial growth over a multi-month period of time and would maintain its physical characteristics, and • (b) work within an acceptable manufacturing process (both physically and in terms of cost).
In terms of physical characteristics measured, once the test tablets had been rehydrated, several observables were tracked each day such as scent, clarity, presence of particulates and pressure.
Scent was measured by comparing the scent each day to the original scent of an initially rehydrated bottle. When microbial activity is present it can create compounds, which add a distinctly unpleasant odor to the compositions. 2 Given the sensitivity of the human nose to such compounds, this would be a clear aesthetic failure for the product even if overall microbial growth remained below a level that could be harmful or otherwise impact use.
Regarding clarity, initially rehydrated solutions are completely transparent. […]
Once the initial dissolution process is complete, a rehydrated solution should contain no free-floating particulates. The appearance of any particles within the solution was recorded and visually evaluated. […]

Series [2] has as its system Candida albicans. Conditions: fungus Candida albicans; cited from earlier work.
Series [3] deals with bacteria. Put plainly: Inhibitory effect of IPBC against bacteria tested. In kind it is cell-based. The text has this:
(§1) In Examples 1 and 2, the concentration of IPBC was in the 100 ppm to 160 ppm range. This range inhibits the growth of all three categories of microbes. An amount of 100 ppm is a minimum safe amount to inhibit most types of microbial growth.

For series [4], the system named is fungus and yeast. Put plainly: Growth inhibition of fungus and yeast by IPBC. The class given is cell-based. Conditions: 100 ppm to 160 ppm.
Excerpt: as §1

The test system of series [5] is mold/mildew/yeast/fungi. The note with it: cited from earlier work.
Series [6] has as its system algae. The note with it: cited from earlier work.
The conditions of series [7]: at comparable concentrations; cited from earlier work.

As to benzalkonium chloride [BKC], the “effectiveness in stability testing (preservation)” value in series [1] is on record as “somewhat effective; also recorded: better preservation than other non-IPBC-containing compositions tested”.

Regarding `O=C([O-])c1ccccc1.[Na+]` [sodium benzoate, reference compound], the MIC result in series [2] is listed as “about 2500 ppm”.

As for iodopropynyl butylcarbamate [IPBC], in series [3], the “concentration with inhibitory effect against most bacteria tested” value worked out at 100 ppm. In addition, in series [4], the “inhibition of growth of fungus and yeast” value is recorded as “significantly inhibits”. In addition, the “minimum inhibitory concentration (MIC)” value was at most 10 ppm in series [5] and at most 50 ppm in series [6]. Also, the MIC entry in series [2] is given as “about 8 ppm”. Besides, in series [7], the comedogenicity result was “noncomedogenic”.
